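The compound was tested at five concentrations on cells cultured in 96-well plates, with a 48-hour exposure period. GI50: concentration for 50% inhibition of growth.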 Activity calls are given as the source filed them. No stated cut-off is given here; in the data, active = GI50 up to about 1.1 µM and inactive = higher.
What was measured:
Assay in all cases: NCI tumour cell line growth inhibition, 48 h
A549 = test system: A549
CCRF-CEM = test system: CCRF-CEM
EKVX = test system: EKVX
HCC 2998 = test system: HCC 2998
HCT-15 = test system: HCT-15
HOP-62 = test system: HOP-62
IGROV-1 = test system: IGROV-1
KM12 = test system: KM12
LOX IMVI = test system: LOX IMVI
Malme-3M = test system: Malme-3M
NCI-H226 = test system: NCI-H226
NCI-H23 = test system: NCI-H23
NCI-H522 = test system: NCI-H522
NCI/ADR-RES = test system: NCI/ADR-RES
OVCAR-3 = test system: OVCAR-3
OVCAR-8 = test system: OVCAR-8
SF-539 = test system: SF-539
SK-OV-3 = test system: SK-OV-3
UO-31 = test system: UO-31
A498 = test system: A498

Row | SMILES | GI50 (A549) | GI50 (CCRF-CEM) | GI50 (EKVX) | GI50 (HCC 2998) | GI50 (HCT-15) [µM] | GI50 (HOP-62) | GI50 (IGROV-1) | GI50 (KM12) | GI50 (LOX IMVI) | GI50 (Malme-3M) | GI50 (NCI-H226) | GI50 (NCI-H23) | GI50 (NCI-H522) | GI50 (NCI/ADR-RES) | GI50 (OVCAR-3) | GI50 (OVCAR-8) | GI50 (SF-539) | GI50 (SK-OV-3) | GI50 (UO-31) | GI50 (A498)
1 | CCOC(=O)C1C2CCC1CC(=NNc1ccc([N+](=O)[O-])cc1[N+](=O)[O-])C2 (stereo not drawn) | 37.6 µM (inactive) | > 50 µM (inactive) | 30.3 µM (inactive) | 45.1 µM (inactive) | > 50 | > 50 µM (inactive) | > 50 µM (inactive) | 48.9 µM (inactive) | > 50 µM (inactive) | > 50 µM (inactive) | 37.4 µM (inactive) | > 50 µM (inactive) | > 50 µM (inactive) | 4.38 µM (inactive) | > 50 µM (inactive) | > 50 µM (inactive) | > 50 µM (inactive) | > 50 µM (inactive) | > 50 µM (inactive) | –
2 | O=c1c(Cc2ccccc2Cc2c(O)oc3ccccc3c2=O)c(O)oc2ccccc12 | > 100 µM (inactive) | > 100 µM (inactive) | > 100 µM (inactive) | – | > 100 | > 100 µM (inactive) | > 100 µM (inactive) | > 100 µM (inactive) | > 100 µM (inactive) | > 100 µM (inactive) | > 100 µM (inactive) | > 100 µM (inactive) | > 100 µM (inactive) | > 100 µM (inactive) | > 100 µM (inactive) | > 100 µM (inactive) | > 100 µM (inactive) | > 100 µM (inactive) | > 100 µM (inactive) | > 100 µM (inactive)
3 | COP(=O)(CC(=O)C1OC(OCc2ccccc2)C(OCc2ccccc2)C(OCc2ccccc2)C1OCc1ccccc1)OC (stereo not drawn) | 5.57 µM (inactive) | 4.76 µM (inactive) | 8.07 µM (inactive) | 3.32 µM (inactive) | 4.83 | 20.1 µM (inactive) | 13.3 µM (inactive) | 4.16 µM (inactive) | 11 µM (inactive) | 9.1 µM (inactive) | 4.91 µM (inactive) | 8.47 µM (inactive) | 9.51 µM (inactive) | 4.16 µM (inactive) | 8.87 µM (inactive) | 5.87 µM (inactive) | 12.8 µM (inactive) | 27.8 µM (inactive) | 2.94 µM (inactive) | –
4 | COc1ccc2c(=O)cc(-c3ccncc3)oc2c1OC | 33.1 µM (inactive) | 29.1 µM (inactive) | 28.2 µM (inactive) | 25.3 µM (inactive) | 28.5 | 30.8 µM (inactive) | 20.8 µM (inactive) | 26.4 µM (inactive) | 21 µM (inactive) | 30.4 µM (inactive) | – | 24.6 µM (inactive) | 24.6 µM (inactive) | 34 µM (inactive) | 17.5 µM (inactive) | 24.9 µM (inactive) | – | 41 µM (inactive) | 19.7 µM (inactive) | 14.7 µM (inactive)
5 | CCCNC(=O)Cn1c(C)cc2ccccc21 | > 100 µM (inactive) | > 100 µM (inactive) | > 100 µM (inactive) | > 100 µM (inactive) | > 100 | > 100 µM (inactive) | > 100 µM (inactive) | > 100 µM (inactive) | > 100 µM (inactive) | > 100 µM (inactive) | > 100 µM (inactive) | > 100 µM (inactive) | > 100 µM (inactive) | > 100 µM (inactive) | > 100 µM (inactive) | > 100 µM (inactive) | > 100 µM (inactive) | > 100 µM (inactive) | > 100 µM (inactive) | –
6 | O=C(OCC12CC3CC(CC(C3)C1)C2)c1ccc(NCc2cc(O)ccc2O)cc1 | 2.67 µM (inactive) | 0.0547 µM (active) | 2.7 µM (inactive) | 1.79 µM (inactive) | 1.32 | 4.62 µM (inactive) | 0.131 µM (active) | 1.24 µM (inactive) | 1.72 µM (inactive) | – | 1.77 µM (inactive) | 1.47 µM (inactive) | 0.0662 µM (active) | 1.47 µM (inactive) | 0.305 µM (active) | 1.81 µM (inactive) | 0.544 µM (active) | 6.08 µM (inactive) | 0.671 µM (active) | 3.72 µM (inactive)
7 | Cc1c(/N=N/c2ccc(Cl)cc2)c(C)n(C2OC(CO)C(O)C(O)C2O)c(=S)c1C#N (stereo not drawn) | 22 µM (inactive) | 18.5 µM (inactive) | 21.8 µM (inactive) | 23.7 µM (inactive) | 23.8 | 18.1 µM (inactive) | 15.1 µM (inactive) | 24.8 µM (inactive) | 17.3 µM (inactive) | 22.5 µM (inactive) | 25.3 µM (inactive) | 30 µM (inactive) | 20 µM (inactive) | 19 µM (inactive) | 12.8 µM (inactive) | 30.1 µM (inactive) | 20.4 µM (inactive) | 37.4 µM (inactive) | 23.4 µM (inactive) | –
8 | O=C1NC(=S)N/C1=C\c1cccs1 | > 100 µM (inactive) | > 100 µM (inactive) | > 100 µM (inactive) | > 100 µM (inactive) | > 100 | > 100 µM (inactive) | > 100 µM (inactive) | > 100 µM (inactive) | > 100 µM (inactive) | > 100 µM (inactive) | > 100 µM (inactive) | > 100 µM (inactive) | > 100 µM (inactive) | > 100 µM (inactive) | > 100 µM (inactive) | > 100 µM (inactive) | > 100 µM (inactive) | > 100 µM (inactive) | > 100 µM (inactive) | –
9 | O=C(CN1CCN(c2ccccc2)CC1)c1ccc2[nH]c(=O)oc2c1 | – | > 100 µM (inactive) | > 100 µM (inactive) | – | > 100 | > 100 µM (inactive) | > 100 µM (inactive) | > 100 µM (inactive) | > 100 µM (inactive) | > 100 µM (inactive) | > 100 µM (inactive) | > 100 µM (inactive) | – | 49.5 µM (inactive) | > 100 µM (inactive) | > 100 µM (inactive) | 36.5 µM (inactive) | > 100 µM (inactive) | – | > 100 µM (inactive)
10 | Cc1ccc(/C=N/Nc2nc3ccccc3s2)s1 | > 100 µM (inactive) | > 100 µM (inactive) | 50.7 µM (inactive) | 55.6 µM (inactive) | 19.4 | 26.2 µM (inactive) | 18.8 µM (inactive) | 49.1 µM (inactive) | > 100 µM (inactive) | > 100 µM (inactive) | > 100 µM (inactive) | > 100 µM (inactive) | > 100 µM (inactive) | > 100 µM (inactive) | 34.9 µM (inactive) | > 100 µM (inactive) | 91.8 µM (inactive) | 58.7 µM (inactive) | 51.6 µM (inactive) | –
11 | N#CCCOc1cccc(C2(N3CCCCC3)CCCCC2)c1 | > 100 µM (inactive) | > 100 µM (inactive) | > 100 µM (inactive) | – | > 100 | > 100 µM (inactive) | > 100 µM (inactive) | > 100 µM (inactive) | > 100 µM (inactive) | > 100 µM (inactive) | > 100 µM (inactive) | > 100 µM (inactive) | > 100 µM (inactive) | > 100 µM (inactive) | > 100 µM (inactive) | > 100 µM (inactive) | > 100 µM (inactive) | > 100 µM (inactive) | > 100 µM (inactive) | > 100 µM (inactive)
12 | Cc1c(S(=O)(=O)/N=C(\NN)Nc2ccc(Cl)cc2)sc2ccc(Cl)cc12 | 16.9 µM (inactive) | 16.3 µM (inactive) | 13.9 µM (inactive) | – | 16.6 | 18.7 µM (inactive) | 15.2 µM (inactive) | 15.3 µM (inactive) | 18.6 µM (inactive) | 22.3 µM (inactive) | 20 µM (inactive) | 17.7 µM (inactive) | 17.3 µM (inactive) | 18 µM (inactive) | 16.6 µM (inactive) | 16.8 µM (inactive) | 14.3 µM (inactive) | 19.7 µM (inactive) | 19 µM (inactive) | 15.8 µM (inactive)
13 | O=C1NC(N2CCCC(CO)C2)=N/C1=C\c1ccc(O)cc1 (stereo not drawn) | > 100 µM (inactive) | > 100 µM (inactive) | > 100 µM (inactive) | > 100 µM (inactive) | > 100 | > 100 µM (inactive) | > 100 µM (inactive) | > 100 µM (inactive) | > 100 µM (inactive) | > 100 µM (inactive) | > 100 µM (inactive) | > 100 µM (inactive) | > 100 µM (inactive) | > 100 µM (inactive) | > 100 µM (inactive) | > 100 µM (inactive) | > 100 µM (inactive) | > 100 µM (inactive) | > 100 µM (inactive) | –
14 | COc1cc(C=C2C(C)=NN(c3cccc(Cl)c3)C23C(Cl)C(=O)N3c2nc3ccccc3s2)ccc1O (stereo not drawn) | – | 2.07 µM (inactive) | 31.4 µM (inactive) | 2.56 µM (inactive) | 20.7 | 20.4 µM (inactive) | 15.8 µM (inactive) | 5.85 µM (inactive) | 18.1 µM (inactive) | – | 22.4 µM (inactive) | 18.4 µM (inactive) | 3.5 µM (inactive) | 38.8 µM (inactive) | 26.4 µM (inactive) | 16.8 µM (inactive) | 35.4 µM (inactive) | 26.3 µM (inactive) | 20.7 µM (inactive) | 17.9 µM (inactive)
15 | CCOC(=O)CCc1c(C(=O)OCC)[nH]c(/C=C2/NC(=O)C(C)=C2CC)c1C | 24.3 µM (inactive) | – | – | – | 3.47 | 15 µM (inactive) | 8.38 µM (inactive) | 10.9 µM (inactive) | 8.18 µM (inactive) | 13 µM (inactive) | 16.9 µM (inactive) | 2.24 µM (inactive) | 11.7 µM (inactive) | 10.4 µM (inactive) | 3.88 µM (inactive) | 31.9 µM (inactive) | 19.5 µM (inactive) | 34.7 µM (inactive) | 2 µM (inactive) | 17.1 µM (inactive)
